{"source": "paper PMC3789393", "about": "“Purification and Characterization of Phenylalanine Ammonia Lyase from Trichosporon cutaneum” (Enzyme Research, 2013)", "test_system": "T1, Trichosporon cutaneum phenylalanine ammonia lyase (TcPAL)", "T1 construct": "gene PAL; extra bands at 67 and 31 kDa; 79 kDa monomer; PAL typically homotetramer", "assay": "continuous spectrophotometric assay of trans-cinnamic acid at […] nm", "format": "biochemical, Cutaneotrichosporon cutaneum", "settings": "10 mM Tris-HCl pH 8.0, 30 °C; trial 1 of 3 (the trial quoted in abstract)"}
{"smiles": "N[C@@H](Cc1ccccc1)C(=O)O", "note": "[Phe]", "values": [{"measurement": "Km", "value": "5 ± 1.1", "unit": "mM"}]}
